How the values were obtained:
[1] = tested on: Blood platelet (ADP agglutination); test: Blood platelet agglutination inhibiting activity (ADP-induced), washed rabbit platelet suspension; assay type: cell-based, rabbit (Japanese white male rabbits); details: Oryctolagus cuniculus, Platelet; ADP 10 μM; concentration suppressing agglutination to 50%; read-out: Platelet agglutination inhibiting activity ED50, ADP agglutination
Protocol: Blood platelet aggutination inhibiting activity
Japanese white male rabbits having a weight of from 2.0 to 2.5 kg were used.
Under anesthesia with sodium Pentobarbital, blood was sampled from the carotid artery, and mixed with a 1/7 volume of an anticoagulant citric acid dextrose solution. Then, the mixture was subjected to centrifugal separation at 140×g for 15 minutes, whereupon the supernatant (platelet rich plasma:PRP) was obtained. PRP was subjected to centrifugal separation at 1,300×g for 7 minutes. The blood platelet pellets thus obtained were washed with a HEPES buffer solution (pH 6.5) for washing blood platelets, and subjected to centrifugal separation at 1,300×g for 7 minutes. The blood platelet pellets washed twice under such condition, were suspended in a suspending liquid (a buffer solution for washing blood platelets, which contains 0.1% of human fibrinogen, 1.8 mM of CaCl2 and 1.2 mM of MgCl2) to obtain a blood platelet suspension having a concentration of from 5×10^8 to 8×10^8 platelets/ml.
The platelet agglutination ability was measured by means of an agglutination meter. To 380 μl of the platelet suspension, 10 μl of a test compound or a solvent as the control, was added. Three minutes later, 10 μl of a platelet agglutinating substance (10 μM of ADP or 1 μg/ml of collagen, as the final concentration) was added thereto to induce agglutination.
The blood platelet agglutination inhibiting activity of each test compound was represented by ED50 (i.e. the concentration of the test compound where the platelet agglutination is suppressed to 50%).

[2] = tested on: diastolic blood pressure; test: Hypotensive activity, anesthetized dog; assay type: in vivo, crossbred adult dog; details: Canis lupus familiaris, iv, read-out: Hypotensive activity ED50 (dose reducing diastolic blood pressure by 50 mmHg); heading: Hypotensive activity ED50; dog; femoral vein; Table 1
Protocol: A male or female crossbred adult dog having a weight of from 9 to 14 kg was anesthetized by intraveous administration of sodium Pentobarbital. Then, the left carotid was exposed under artificial respiration, and the blood pressure was measured by using an electric blood pressure meter. […]

[3] = tested on: Ethanol ulcer; test: Ethanol ulcer inhibiting activity; assay type: in vivo, Male wister rats; details: rat; oral administration of 30 μg/kg
[4] = tested on: Hydrochloric acid ulcer; test: Hydrochloric acid ulcer inhibiting activity; assay type: in vivo, wister rats; details: rat; oral administration of 30 μg/kg
[5] = tested on: diastolic blood pressure; details: background statement; cited from earlier work
[6] = background; cited from earlier work

With `CCCCC[C@H](O)/C=C/[C@@H]1[C@H]2C/C(=C/CCCC(=O)O)O[C@H]2C[C@H]1O` [Prostacyclin, (5Z,13E)-(9α,11α,15S)-6,9-epoxy-11,15-dihydroxyprosta-5,13-diene acid] the IC50 [1] was 2.9 nM, the ED (50 mmHg) [2] was 0.24 µg/kg and the “Ethanol ulcer inhibition (in words)” value [3] was “No inhibiting activity”. For the same compound, the “Hydrochloric acid ulcer inhibition (in words)” value [4] was “No inhibiting activity”, the “Hypotensive activity of prostacyclin (in words)” value [5] was “remarkable hypotensive activities” and the “Chemical stability (in words)” value [6] was “very unstable”.
